In brackets after ≈: the same amount, converted by molar mass.
Legend:
Format in all cases: functional
L1210 = test: Cytotoxicity against mouse L1210 cells; details: read-out: ED50 (the source's name)
KB = test: Cytotoxicity against human KB cells; details: read-out: ED50 (the source's name)
P388 [1] = test: Cytotoxicity against mouse P388 cells; details: read-out: ED50 (the source's name)
HCT-8 = test: Cytotoxicity against human HCT8 cells; details: read-out: ED50 (the source's name)
P388 [2] = test: Antileukemic activity against mouse P388 cells xenografted in mouse at 3 mg/kg after 3 days relative to control

| Structure (SMILES) | EC50 (L1210) [µg/mL] | EC50 (KB) [µg/mL] | EC50 (P388 [1]) [µg/mL] | EC50 (HCT-8) [µg/mL] | T/C (P388 [2]) [%] |
| --- | --- | --- | --- | --- | --- |
| C=CC(=O)C#CC#C/C=C\C(=O)CCCCCCC | > 10 | > 10 | > 10 | 3.7 (≈ 14.4 µM) | – |
| CCC[C@@H](O)/C=C/C=C/C=C/C#CC#CCCCO [CICUTOXIN] | – | 2 (≈ 7.74 µM) | – | – | 165 |
| COc1cccc2c1C(=O)c1c(O)c3c(c(O)c1C2=O)C[C@@](O)(C(=O)CO)C[C@@H]3O[C@H]1C[C@H](N)[C@H](O)[C@H](C)O1.Cl [DOXORUBICIN HYDROCHLORIDE] | – | – | – | 0.3 | – |
| COc1cc([C@@H]2c3cc4c(cc3[C@@H](O[C@@H]3O[C@@H]5CO[C@@H](C)O[C@H]5[C@H](O)[C@H]3O)[C@H]3COC(=O)[C@H]23)OCO4)cc(OC)c1O [ETOPOSIDE] | 1.6 (≈ 2.72 µM) | 0.1 (≈ 0.17 µM) | 2.6 (≈ 4.42 µM) | – | – |
| C=CC(C#CC#C/C=C\C(CCCCCCC)OC(C)=O)OC(C)=O (stereo not drawn) [SESELIDIOL DIACETATE] | 5.5 | 4 | 5.2 | 7.8 | – |
| C=CC(O)C#CC#C/C=C\C(O)CCCCCCC (stereo not drawn) [SESELIDIOL] | 3.3 (≈ 12.7 µM) | 1 (≈ 3.84 µM) | 4.9 (≈ 18.8 µM) | 10 (≈ 38.4 µM) | – |
